Reference: US20260062422A1 (Halda Therapeutics OpCo, Inc., priority 2022, published 2026)

Assays:
[1] = system: T-Rex 293 cell line SC3 cells lacking increased expression of androgen receptor protein; assay: Cellular growth inhibition, T-Rex 293 SC3 cells without doxycycline, CellTiter-Glo; assay type: cell-based; conditions: T-Rex 293 SC3 cells not exposed to doxycycline, CellTiter-Glo 2.0
Outline: (§1)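 GI50 came from a four-parameter fit of CellTiter-Glo 2.0 luminescence after 72 h compound exposure (0.5% DMSO, 37 °C), dosing 24 h post-seeding. SC3 clone cells (2500/well), transfected with wild-type androgen receptor, grew in charcoal-stripped serum medium lacking phenol red, induced with 10 ng/mL doxycycline or left uninduced.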

VCaP cells = assay: Cellular growth inhibition assay for VCaP cells, CellTiter-Glo; assay type: cell-based, human; conditions: 72 hours treatment, CellTiter-Glo 2.0
Outline: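 GI50 values come from four-parameter curve fits of luminescence data normalized to a zero baseline. Compound, in medium with 0.5% DMSO, was added one day after plating and left for 72 h before CellTiter-Glo 2.0 addition.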

[2] = system: T-Rex 293 cell line SC3 cells having increased expression of androgen receptor protein due to exposure to doxycycline; assay: Cellular growth inhibition, T-Rex 293 SC3 cells with doxycycline (androgen receptor induced), CellTiter-Glo; assay type: cell-based; conditions: T-Rex 293 SC3 cells with 10 ng/mL doxycycline (increased androgen receptor expression)
Outline: as §1

T47D cells = assay: Cellular growth inhibition assay for T47D cells, CellTiter-Glo; assay type: cell-based, human; conditions: 72 hours treatment, CellTiter-Glo 2.0 cell viability
Outline: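 Luminescence from CellTiter-Glo 2.0 after 72 h of compound exposure gives the viability signal. Cells grew in insulin-supplemented (0.2 units/mL) DMEM with 10% FBS and were treated one day after seeding at 0.5% DMSO. GI50 values come from four-parameter nonlinear regression.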

Row | SMILES | GI50 ([1]; 72 h) | GI50 (VCaP cells; Homo sapiens, VCaP, 72 h) | GI50 ([2]; 72 h) | GI50 (T47D cells; Homo sapiens, T47D, 72 h) | GI50 ([1]; 72 hours) | GI50 (VCaP cells) | GI50 ([2]; 72 hours) | GI50 (T47D cells)
1 | Cc1sc2c(c1C)C(c1ccc(C(=O)N3CCC[C@@H](C(=O)c4ncc(C(=O)N[C@H]5C(C)(C)[C@H](Oc6ccc(C#N)c(Cl)c6)C5(C)C)cn4)C3)cc1)=N[C@H](Cc1ncco1)c1nnc(C)n1-2 [Compound I-364] | > 3000 nM | > 3000 nM | < 500 nM | > 3000 nM | – | – | – | –
2 | Cc1sc2c(c1C)C(c1ccc(C3CC3C3CC4(CCN(c5ncc(C(=O)N[C@H]6C(C)(C)[C@H](Oc7ccc(C#N)c(Cl)c7)C6(C)C)cn5)CC4)C3)cc1)=N[C@H](Cc1ncco1)c1nnc(C)n1-2 (stereo partly drawn) [Compound I-150] | > 3000 nM | < 500 nM | < 500 nM | > 3000 nM | – | – | – | –
3 | Cc1sc2c(c1C)C(c1ccc(C#CCN3CCN(c4ncc(C(=O)N[C@H]5C(C)(C)[C@H](Oc6ccc(C#N)c(Cl)c6)C5(C)C)cn4)CC3)cc1)=N[C@@H](Cc1ncco1)c1nnc(C)n1-2 [Compound I-56] | < 500 nM | < 500 nM | < 500 nM | < 500 nM | – | – | – | –
4 | Cc1sc2c(c1C)C(c1ccc(OC3CC4(CCN(c5ncc(C(=O)N[C@H]6C(C)(C)[C@H](Oc7ccc(C#N)c(Cl)c7)C6(C)C)cn5)CC4)C3)cc1)=NC(C(F)(F)F)c1nnc(C)n1-2 (stereo partly drawn) [Compound I-601] | – | – | – | – | > 3000 nM | < 500 nM | > 3000 nM | > 3000 nM
5 | Cc1sc2c(c1C)C(c1ccc(CCCOC3CCN(c4ncc(C(=O)N[C@H]5C(C)(C)[C@H](Oc6ccc(C#N)c(Cl)c6)C5(C)C)cn4)CC3)cc1)=C[C@H](Cc1ccncn1)c1nnc(C)n1-2 [Compound I-375] | < 500 nM | < 500 nM | < 500 nM | < 500 nM | – | – | – | –
6 | Cc1sc2c(c1C)C(c1ccc(C3CC(C4CCN(c5ncc(C(=O)N[C@H]6C(C)(C)[C@H](Oc7ccc(C#N)c(Cl)c7)C6(C)C)cn5)CC4)C3)cc1)=NC(C)c1nnc(C)n1-2 (stereo partly drawn) [Compound I-466] | – | – | – | – | > 3000 nM | > 3000 nM | < 500 nM | < 500 nM
7 | Cc1sc2c(c1C)C(c1ccc(N3CCC4(CC3)CC(Cc3ncc(C(=O)N[C@H]5C(C)(C)[C@H](Oc6ccc(C#N)c(Cl)c6)C5(C)C)cn3)C4)cc1)=NC(Cc1ncco1)c1nnc(C)n1-2 (stereo partly drawn) [Compound I-460] | – | – | – | – | 500 to 1500 nM | < 500 nM | < 500 nM | < 500 nM
8 | Cc1sc2c(c1C)C(c1ccc(OC3CC4(CCN(c5ncc(C(=O)N[C@H]6C(C)(C)[C@H](Oc7ccc(C#N)c(Cl)c7)C6(C)C)cn5)CC4)C3)cc1)=N[C@@](C)(C(C)c1ncco1)c1nnc(C)n1-2 (stereo partly drawn) [Compound I-262] | > 3000 nM | > 3000 nM | < 500 nM | > 3000 nM | – | – | – | –
9 | Cc1sc2c(c1C)C(c1ccc(OC3CC4(CCN(c5ncc(C(=O)N[C@H]6C(C)(C)[C@H](Oc7ccc(C#N)c(Cl)c7)C6(C)C)cn5)CC4)C3)cc1)=N[C@@H](C)c1nnc(C)n1-2 [Compound I-391] | > 3000 nM | 1500 to 3000 nM | < 500 nM | 500 to 1500 nM | – | – | – | –
10 | Cc1sc2c(c1C)C(c1ccc(OC[C@H]3CC[C@]4(CCCN(c5ncc(C(=O)N[C@H]6C(C)(C)[C@H](Oc7ccc(C#N)c(Cl)c7)C6(C)C)cn5)C4)C3)cc1)=N[C@@H](Cc1ncco1)c1nnc(C)n1-2 [Compound I-204] | > 3000 nM | 500 to 1500 nM | < 500 nM | < 500 nM | – | – | – | –
11 | CCNC(=O)C[C@@H]1N=C(c2ccc(N3CC(CC4CN(c5ncc(C(=O)N[C@H]6C(C)(C)[C@H](Oc7ccc(C#N)c(Cl)c7)C6(C)C)cn5)C4)C3)cc2)c2c(sc(C)c2C)-n2c(C)nnc21 [Compound I-127] | 500 to 1500 nM | < 500 nM | < 500 nM | < 500 nM | – | – | – | –
12 | Cc1sc2c(c1C)C(c1ccc(O[C@@H]3CCC4(CCN(c5ncc(C(=O)N[C@H]6C(C)(C)[C@H](Oc7ccc(C#N)c(Cl)c7)C6(C)C)cn5)C4)C3)cc1)=N[C@@H](Cc1ncco1)c1nnc(C)n1-2 (stereo partly drawn) [Compound I-177] | < 500 nM | < 500 nM | < 500 nM | < 500 nM | – | – | – | –
13 | Cc1sc2c(c1C)C(c1ccc(OC3CC4(C3)CC3(CCN(c5ccc(C(=O)N[C@H]6C(C)(C)[C@H](Oc7ccc(C#N)c(Cl)c7)C6(C)C)cn5)CC3)C4)cc1)=N[C@@H](C)c1nnc(C)n1-2 [Compound I-550] | > 3000 nM | < 500 nM | < 500 nM | < 500 nM | – | – | – | –
14 | Cc1sc2c(c1C)C(c1ccc(C#CC3CC4(C3)CN(c3ncc(C(=O)N[C@H]5C(C)(C)[C@H](Oc6ccc(C#N)c(Cl)c6)C5(C)C)cn3)C4)cc1)=N[C@@H](C)c1nnc(C)n1-2 [Compound I-349] | < 500 nM | < 500 nM | < 500 nM | < 500 nM | – | – | – | –
15 | Cc1sc2c(c1C)C(c1ccc(O[C@@H]3CCOC34CN(c3ncc(C(=O)N[C@H]5C(C)(C)[C@H](Oc6ccc(C#N)c(Cl)c6)C5(C)C)cn3)C4)cc1)=N[C@@H](Cc1ncco1)c1nnc(C)n1-2 [Compound I-184] | < 500 nM | < 500 nM | < 500 nM | < 500 nM | – | – | – | –
16 | Cc1sc2c(c1C)C(c1ccc(N(C)CC(=O)NCc3ncc(C(=O)N[C@H]4C(C)(C)[C@H](Oc5ccc(C#N)c(Cl)c5)C4(C)C)cn3)cc1)=N[C@H](Cc1ncco1)c1nnc(C)n1-2 [Compound I-374] | > 3000 nM | < 500 nM | > 3000 nM | 500 to 1500 nM | – | – | – | –
17 | Cc1sc2c(c1C)C(c1ccc(N3CC(CC4CCN(c5ccc(C(=O)N[C@H]6C(C)(C)[C@H](Oc7ccc(C#N)c(Cl)c7)C6(C)C)nc5)CC4)C3)cc1)=N[C@@H](C)c1nnc(C)n1-2 [Compound I-449] | > 3000 nM | > 3000 nM | > 3000 nM | 500 to 1500 nM | – | – | – | –
18 | Cc1sc2c(c1C)C(c1ccc(C(=O)N3CCC(N(C)c4ncc(C(=O)N[C@H]5C(C)(C)[C@H](Oc6ccc(C#N)c(Cl)c6)C5(C)C)cn4)CC3)cc1)=N[C@H](Cc1ncco1)c1nnc(C)n1-2 [Compound I-294] | > 3000 nM | 1500 to 3000 nM | < 500 nM | 500 to 1500 nM | – | – | – | –
19 | Cc1sc2c(c1C)C(c1ccc(C#C[C@H]3C[C@]4(CCCN(c5ncc(C(=O)N[C@H]6C(C)(C)[C@H](Oc7ccc(C#N)c(Cl)c7)C6(C)C)cn5)C4)C3)cc1)=N[C@@H](Cc1ncco1)c1nnc(C)n1-2 [Compound I-269] | > 3000 nM | 1500 to 3000 nM | < 500 nM | 500 to 1500 nM | – | – | – | –
20 | CC[C@@H]1N=C(c2ccc(N3CC(C4CCN(c5ncc(C(=O)N[C@H]6C(C)(C)[C@H](Oc7ccc(C#N)c(Cl)c7)C6(C)C)cn5)CC4)C3)cc2)c2c(sc(C)c2C)-n2c(C)nnc21 [Compound I-595] | > 3000 nM | < 500 nM | < 500 nM | > 3000 nM | – | – | – | –
21 | Cc1sc2c(c1C)C(c1ccc(OC3CC4(CCN(c5ncc(C(=O)N[C@H]6C(C)(C)[C@H](Oc7ccc(C#N)c(Cl)c7)C6(C)C)cn5)CC4)C3)cc1)=N[C@@H](Cc1ncon1)c1nnc(C)n1-2 [Compound I-279] | > 3000 nM | 1500 to 3000 nM | < 500 nM | < 500 nM | – | – | – | –
22 | Cc1sc2c(c1C)C(c1ccc(C(=O)N3CCC[C@@H](C(=O)c4ncc(C(=O)N[C@H]5C(C)(C)[C@H](Oc6ccc(C#N)c(Cl)c6)C5(C)C)cn4)C3)cc1)=N[C@@H](Cc1ncco1)c1nnc(C)n1-2 [Compound I-344] | > 3000 nM | 500 to 1500 nM | > 3000 nM | 500 to 1500 nM | – | – | – | –
23 | Cc1sc2c(c1C)C(c1ccc(OC[C@H]3CCCN(c4ncc(C(=O)N[C@H]5C(C)(C)[C@H](Oc6ccc(C#N)c(Cl)c6)C5(C)C)cn4)C3)cc1)=N[C@@H](Cc1ncco1)c1nnc(C)n1-2 [Compound I-255] | < 500 nM | < 500 nM | < 500 nM | < 500 nM | – | – | – | –
24 | Cc1sc2c(c1C)C(c1ccc(CCCC3CC4(C3)CN(c3ncc(C(=O)N[C@H]5C(C)(C)[C@H](Oc6ccc(C#N)c(Cl)c6)C5(C)C)cn3)C4)cc1)=N[C@@H](C)c1nnc(C)n1-2 [Compound I-365] | > 3000 nM | < 500 nM | < 500 nM | < 500 nM | – | – | – | –
